This note sets out measurements from patent publication US9957265B2, “N-(2-cyano heterocyclyl) pyrazolo pyridones as janus kinase inhibitors” (Merck Sharp & Dohme Corp., priority 2013, dated 2018).

The target of one test is JAK2 (Homo sapiens (Human), UniProt O60674). Nature of the test: Jak Biochemical HTRF Assay (JAK2).
A further test deals with JAK1 (Homo sapiens (Human), UniProt P23458). Nature of the test: Jak Biochemical HTRF Assay (JAK1). The note with it: recombinant GST-tagged catalytic domain, [ATP] 31.8 μM, unit not given (compound concentrations tested given in nM). The source says: Jak Biochemical HTRF Assay Protocol
Subsequent reagent additions employed an Agilent Bravo.
A general note: Time-resolved FRET reads energy transfer from a long-lived donor to a nearby acceptor.

[1] abbreviates: JAK2 IC50, recombinant GST-tagged catalytic domain, [ATP] 8.5 μM, unit not given (compound concentrations tested given in nM).
[2] abbreviates: read-out: JAK2 IC50, recombinant GST-tagged catalytic domain, [ATP] 8.5 μM, unit not given (compound concentrations tested given in nM).

Like-named read-outs stand apart in the source and are kept apart here.

Sequence of JAK1 (P23458 875-1153): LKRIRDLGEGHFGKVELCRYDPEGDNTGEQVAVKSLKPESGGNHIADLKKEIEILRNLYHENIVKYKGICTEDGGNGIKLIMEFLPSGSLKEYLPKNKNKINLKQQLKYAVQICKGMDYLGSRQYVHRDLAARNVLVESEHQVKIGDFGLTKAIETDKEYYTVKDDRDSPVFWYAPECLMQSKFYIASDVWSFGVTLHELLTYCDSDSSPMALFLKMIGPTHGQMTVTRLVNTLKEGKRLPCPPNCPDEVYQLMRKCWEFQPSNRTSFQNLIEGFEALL
Sequence of JAK2 (O60674 849-1124): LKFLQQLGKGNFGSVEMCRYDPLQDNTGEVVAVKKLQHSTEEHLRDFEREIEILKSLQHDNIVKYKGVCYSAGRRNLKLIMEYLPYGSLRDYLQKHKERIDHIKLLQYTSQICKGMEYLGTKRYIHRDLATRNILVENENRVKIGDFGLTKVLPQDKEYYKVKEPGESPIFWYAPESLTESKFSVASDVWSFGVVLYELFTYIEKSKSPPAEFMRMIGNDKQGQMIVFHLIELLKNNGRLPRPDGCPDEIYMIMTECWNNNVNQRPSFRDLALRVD

On to `CC1CN(S(=O)(=O)c2ccc(Nc3nn([C@H]4COCC[C@@H]4C#N)c4cc[nH]c(=O)c34)cc2)CCO1` (single isomer, unassigned) [Example 1-75, (3R,4S)-3-{3-[(4-{[(2R or 2S)-2-methylmorpholin-4-yl]sulfonyl}phenyl)amino]-4-oxo-4,5-dihydro-1H-pyrazolo[4,3-c]pyridin-1-yl}tetrahydro-2H-pyran-4-carbonitrile], for which the values for the IC50 on JAK2 (setting [1]) and at JAK1 were 0.54 nM and 0.14 nM, respectively.
In the same order, the values of `N#C[C@H]1CCOC[C@@H]1n1nc(Nc2ccc(C(N3CCSCC3)C(F)(F)F)cc2)c2c(=O)[nH]ccc21` (single isomer, unassigned) [Example 2-5, (3R,4S)-3-[4-oxo-3-({4-[(1S or 1R)-2,2,2-trifluoro-1-thiomorpholin-4-ylethyl]phenyl}amino)-4,5-dihydro-1H-pyrazolo[4,3-c]pyridin-1-yl]tetrahydro-2H-pyran-4-carbonitrile] are 0.15 nM and 0.14 nM.
The like results for `N#C[C@H]1CCOC[C@@H]1n1nc(Nc2ccc(C(NC3CC3)C(F)(F)F)cc2)c2c(=O)[nH]ccc21` (single isomer, unassigned) [Example 1-80, (3R,4S)-3-[3-({4-[(1S or 1R)-1-(cyclopropylamino)-2,2,2-trifluoroethyl]phenyl}amino)-4-oxo-4,5-dihydro-1H-pyrazolo[4,3-c]pyridin-1-yl]tetrahydro-2H-pyran-4-carbonitrile] were, in that order, 0.15 nM and 0.07 nM.
Consider `CS(=O)(=O)c1ccc(Nc2nn([C@H]3COCC[C@@H]3C#N)c3cc[nH]c(=O)c23)cc1` [Example 1-2, (3R,4S)-3-(3-((4-(methylsulfonyl)phenyl)amino)-4-oxo-4,5-dihydro-1H-pyrazolo[4,3-c]pyridin-1-yl)tetrahydro-2H-pyran-4-carbonitrile], for which the IC50 at JAK2 (setting [2]) was 0.35 nM; on JAK1, 0.05 nM.
Consider `C[C@H]1CN(S(=O)(=O)c2ccc(Nc3nn([C@H]4COCC[C@@H]4C#N)c4cc[nH]c(=O)c34)cc2)C[C@H](C)O1` (stereo in doubt) [Example 1-76, (3R,4S)-3-{3-[(4-{[(trans)-2,6-dimethylmorpholin-4-yl]sulfonyl}phenyl)amino]-4-oxo-4,5-dihydro-1H-pyrazolo[4,3-c]pyridin-1-yl}tetrahydro-2H-pyran-4-carbonitrile], for which the IC50 at JAK2 (setting [2]) worked out at 0.82 nM; on JAK1 it was 0.24 nM.
The like results for `CC(C)(C)N1Cc2cc(Nc3nn([C@H]4COCC[C@@H]4C#N)c4cc[nH]c(=O)c34)ccc2S1(=O)=O` [Example 1-5, (3R,4S)-3-(3-((2-(tert-butyl)-1,1-dioxido-2,3-dihydrobenzo[d]isothiazol-5-yl)amino)-4-oxo-4,5-dihydro-1H-pyrazolo[4,3-c]pyridin-1-yl)tetrahydro-2H-pyran-4-carbonitrile] were, in that order, 0.15 nM and 0.05 nM.
With `CN1CCN(C(c2ccc(Nc3nn([C@H]4COCC[C@@H]4C#N)c4cc[nH]c(=O)c34)cc2)C(F)(F)F)CC1` (single isomer, unassigned) [Example 1-36, (3R,4S)-3-[4-oxo-3-({4-[(1R or 1S)-2,2,2-trifluoro-1-(4-methylpiperazin-1-yl)ethyl]phenyl}amino)-4,5-dihydro-1H-pyrazolo[4,3-c]pyridin-1-yl]tetrahydro-2H-pyran-4-carbonitrile], the values for the IC50 at JAK2 (setting [1]) and at JAK1 were 0.27 nM and 0.24 nM, respectively.
The like results for `CN(C)C(c1ccc(Nc2nn([C@H]3COCC[C@@H]3C#N)c3cc[nH]c(=O)c23)cc1)C(F)(F)F` (single isomer, unassigned) [Example 1-19, (3R,4S)-3-[3-({4-[(1S or 1R)-1-(dimethylamino)-2,2,2-trifluoroethyl]phenyl}amino)-4-oxo-4,5-dihydro-1H-pyrazolo[4,3-c]pyridin-1-yl]tetrahydro-2H-pyran-4-carbonitrile] were, in that order, 0.08 nM and 0.05 nM.
For `N#C[C@H]1CCOC[C@@H]1n1nc(Nc2ccc(C(N)C(F)(F)F)cc2)c2c(=O)[nH]ccc21` (single isomer, unassigned) [Example 1-8, (3R,4S)-3-(3-((4-((R or S)-1-amino-2,2,2-trifluoroethyl)phenyl)amino)-4-oxo-4,5-dihydro-1H-pyrazolo[4,3-c]pyridin-1-yl)tetrahydro-2H-pyran-4-carbonitrile], the IC50 at JAK2 (setting [1]) stood at 0.22 nM; on JAK1 it was 0.06 nM.
The like results for `CC(C)NC(c1ccc(Nc2nn([C@H]3COCC[C@@H]3C#N)c3cc[nH]c(=O)c23)cc1)C(F)(F)F` (single isomer, unassigned) [Example 1-53, (3R,4S)-3-{4-oxo-3-[(4-{[1S or 1R)-2,2,2-trifluoro-[(1-methylethyl)amino]ethyl}phenyl)amino]-4,5-dihydro-1H-pyrazolo[4,3-c]pyridin-1-yl}tetrahydro-2H-pyran-4-carbonitrile] were, in that order, 0.09 nM and 0.08 nM.
For `CC1CCCN1C(c1ccc(Nc2nn([C@H]3COCC[C@@H]3C#N)c3cc[nH]c(=O)c23)cc1)C(F)(F)F` (single isomer, unassigned) [Example 1-86, (3R,4S)-3-{4-oxo-3-[(4-{(1R or 1S)-2,2,2-trifluoro-1-[(2S or 2R)-2-methylpyrrolidin-1-yl]ethyl}phenyl)amino]-4,5-dihydro-1H-pyrazolo[4,3-c]pyridin-1-yl}tetrahydro-2H-pyran-4-carbonitrile], the IC50 on JAK2 (setting [1]) amounted to 0.23 nM; at JAK1, 0.15 nM.
The like results for `CC(C)(C)CNC(c1ccc(Nc2nn([C@H]3COCC[C@@H]3C#N)c3cc[nH]c(=O)c23)cc1)C(F)(F)F` (single isomer, unassigned) [Example 1-83, (3R,4S)-3-{3-[(4-{(1R or 1S)-1-[(2,2-dimethylpropyl)amino]-2,2,2-trifluoroethyl}phenyl)amino]-4-oxo-4,5-dihydro-1H-pyrazolo[4,3-c]pyridin-1-yl} tetrahydro-2H-pyran-4-carbonitrile] were, in that order, 1.06 nM and 0.5 nM.
The like results for `CN(C)C(c1ccc(Nc2nn([C@H]3COCC[C@@H]3C#N)c3cc[nH]c(=O)c23)cc1)C(F)(F)F` (single isomer, unassigned) [Example 1-58, (3R,4S)-3-[3-({4-[(1R or 1S)-1-(dimethylamino)-2,2,2-trifluoroethyl]phenyl}amino)-4-oxo-4,5-dihydro-1H-pyrazolo[4,3-c]pyridin-1-yl]tetrahydro-2H-pyran-4-carbonitrile] were, in that order, 0.13 nM and 0.07 nM.
The like results for `CN1CCN(C(c2ccc(Nc3nn([C@H]4COCC[C@@H]4C#N)c4cc[nH]c(=O)c34)cc2)C(F)(F)F)CC1` (single isomer, unassigned) [Example 1-37, (3R,4S)-3-[4-oxo-3-({4-[(1S or 1R)-2,2,2-trifluoro-1-(4-methylpiperazin-1-yl)ethyl]phenyl}amino)-4,5-dihydro-1H-pyrazolo[4,3-c]pyridin-1-yl]tetrahydro-2H-pyran-4-carbonitrile] were, in that order, 0.33 nM and 0.22 nM.
On to `N#C[C@H]1CCOC[C@@H]1n1nc(Nc2ccc(C(N3CCCC3)C(F)(F)F)cc2)c2c(=O)[nH]ccc21` (single isomer, unassigned) [Example 1-42, (3R,4S)-3-[4-oxo-3-({4-[(1R or 1S)-2,2,2-trifluoro-1-pyrrolidin-1-ylethyl]phenyl}amino)-4,5-dihydro-1H-pyrazolo[4,3-c]pyridin-1-yl]tetrahydro-2H-pyran-4-carbonitrile], for which the IC50 on JAK2 (setting [1]) was 0.13 nM; at JAK1, 0.05 nM.
Consider `CC(C)(C)NS(=O)(=O)c1ccc(Nc2nn([C@H]3COCC[C@@H]3C#N)c3cc[nH]c(=O)c23)cc1` [Example 1-10, N-(tert-butyl)-4-((1-((3R,4S)-4-cyanotetrahydro-2H-pyran-3-yl)-4-oxo-4,5-dihydro-1H-pyrazolo[4,3-c]pyridin-3-yl)amino)benzenesulfonamide], for which the IC50 at JAK2 (setting [2]) stood at 0.21 nM; on JAK1, 0.08 nM.
Turning to `CC(C)NC(C)(C)c1ccc(Nc2nn([C@H]3COCC[C@@H]3C#N)c3cc[nH]c(=O)c23)cc1` [Example 1-61, (3R,4S)-3-{3-[(4-{1-methyl-1-[(1-methylethyl)amino]ethyl}phenyl)amino]-4-oxo-4,5-dihydro-1H-pyrazolo[4,3-c]pyridin-1-yl}tetrahydro-2H-pyran-4-carbonitrile], the IC50 on JAK2 (setting [2]) and at JAK1 was 0.3 nM each time.
As for `CC1CN(S(=O)(=O)c2ccc(Nc3nn([C@H]4COCC[C@@H]4C#N)c4cc[nH]c(=O)c34)cc2)CCO1` (single isomer, unassigned) [Example 1-74, (3R,4S)-3-{3-[(4-{[(2S or 2R)-2-methylmorpholin-4-yl]sulfonyl}phenyl)amino]-4-oxo-4,5-dihydro-1H-pyrazolo[4,3-c]pyridin-1-yl}tetrahydro-2H-pyran-4-carbonitrile], the IC50 was found to be 0.52 nM on JAK2 (setting [1]) and 0.18 nM on JAK1.
`C[C@@H]1CN(S(=O)(=O)c2ccc(Nc3nn([C@H]4COCC[C@@H]4C#N)c4cc[nH]c(=O)c34)cc2)C[C@H](C)O1` [Example 1-73, (3R,4S)-3-{3-[(4-{[(cis)-2,6-dimethylmorpholin-4-yl]sulfonyl}phenyl)amino]-4-oxo-4,5-dihydro-1H-pyrazolo[4,3-c]pyridin-1-yl}tetrahydro-2H-pyran-4-carbonitrile]: the IC50 worked out at 0.7 nM at JAK2 (setting [2]) and 0.35 nM at JAK1.
For `CC1CCCN1C(c1ccc(Nc2nn([C@H]3COCC[C@@H]3C#N)c3cc[nH]c(=O)c23)cc1)C(F)(F)F` (single isomer, unassigned) [Example 1-88, (3R,4S)-3-{4-oxo-3-[(4-{(1S or 1R)-2,2,2-trifluoro-1-[(2S or 2R)-2-methylpyrrolidin-1-yl]ethyl}phenyl)amino]-4,5-dihydro-1H-pyrazolo[4,3-c]pyridin-1-yl}tetrahydro-2H-pyran-4-carbonitrile], the IC50 on JAK2 (setting [1]) was 0.09 nM; on JAK1 it was 0.11 nM.
